The results in this text go back to patent publication US8735410B2, “Quinazoline derivatives as tyrosine kinase inhibitors” (AstraZeneca AB, priority 2005, dated 2014).

The test has as its system KB cells (human tumour cell line ATCC CCL-17). The test is described as follows: EGFR driven KB cell proliferation assay (Test b). Format: cell-based. As to conditions: geometric mean of n tests, EGF driven proliferation of KB cells. As for the experimental part:
b) EGFR Driven KB Cell Proliferation Assay
This assay measures the ability of a test compound to inhibit the proliferation of KB cells (human tumour cell line ATCC CCL-17).
KB cells were cultured in Dulbecco's modified Eagle's medium (DMEM) containing 10% foetal calf serum, 2 mM glutamine and 1% non-essential amino acids at 37° C. in a 7.5% CO2 air incubator. Cells were harvested from the stock flasks using Trypsin/ethylaminediaminetetraacetic acid (EDTA). Cell density was measured using a haemocytometer and viability was calculated using trypan blue solution before being seeded at a density of 1.25×10^3 cells per well of a 96 well plate in DMEM containing 2.5% charcoal stripped serum, 1 mM glutamine and 1% non-essential amino acids at 37° C. in 7.5% CO2 and allowed to settle for 4 hours.
Following adhesion to the plate, the cells are treated with or without EGF (final concentration of 1 ng/ml) and with or without compound at a range of concentrations in dimethylsulfoxide (DMSO) (0.1% final) before incubation for 4 days. Following the incubation period, cell numbers were determined by addition of 50 μl of 3-(4,5-Dimethylthiazol-2-yl)-2,5-diphenyltetrazolium bromide (MTT) (stock 5 mg/ml) for 2 hours. MTT solution was then tipped off, the plate gently tapped dry and the cells dissolved upon the addition of 100 μl of DMSO.
Absorbance of the solubilised cells was read at 540 nm using a Molecular Devices ThermoMax microplate reader. Inhibition of proliferation was expressed as an IC50 value. This was determined by calculation of the concentration of compound that was required to give 50% inhibition of EGF driven proliferation. The range of proliferation was calculated from the positive (vehicle plus EGF) and negative (vehicle minus EGF) control values. The IC50 value obtained from basal cell growth gives a measure of selectivity.

On to `COc1cc2ncnc(Nc3cccc(Cl)c3F)c2cc1O[C@H]1CCN(C)[C@H](C(N)=O)C1` [Example 1, (2S,4S)-4-({4-[(3-chloro-2-fluorophenyl)amino]-7-methoxyquinazolin-6-yl}oxy)-1-methylpiperidine-2-carboxamide], for which the IC50 – broadly, the point on the concentration scale where inhibition reaches its midpoint – was found to be 56 nM.

As for `CNC(=O)[C@@H]1C[C@@H](Oc2cc3c(Nc4cccc(Cl)c4F)ncnc3cc2OC)CCN1C` [Example 2, (2S,4S)-4-({4-[(3-chloro-2-fluorophenyl)amino]-7-methoxyquinazolin-6-yl}oxy)-N,1-dimethylpiperidine-2-carboxamide], inhibition was half-maximal at 61 nM (IC50).

In the case of `CNC(=O)[C@H]1C[C@H](Oc2cc3c(Nc4cccc(Cl)c4F)ncnc3cc2OC)CCN1C` [Example 3, (2R,4R)-4-({4-[(3-chloro-2-fluorophenyl)amino]-7-methoxyquinazolin-6-yl}oxy)-N,1-dimethylpiperidine-2-carboxamide], the IC50 is 23 nM.
